Measurements reported in PMC8918994, “Characterization of the Trimethylamine N-Oxide Transporter From Pelagibacter Strain HTCC1062 Reveals Its Oligotrophic Niche Adaption” (Frontiers in Microbiology, 2022).

Assays:
Experiment in all cases: isothermal titration calorimetry
Type in all cases: binding
TmoX1062 [1] = molecular target: T1, TmoX1062 (Candidatus Pelagibacter communis, UniProt Q4FL33)
T1 construct: gene tmoX
T1 sequence (Q4FL33 25-314): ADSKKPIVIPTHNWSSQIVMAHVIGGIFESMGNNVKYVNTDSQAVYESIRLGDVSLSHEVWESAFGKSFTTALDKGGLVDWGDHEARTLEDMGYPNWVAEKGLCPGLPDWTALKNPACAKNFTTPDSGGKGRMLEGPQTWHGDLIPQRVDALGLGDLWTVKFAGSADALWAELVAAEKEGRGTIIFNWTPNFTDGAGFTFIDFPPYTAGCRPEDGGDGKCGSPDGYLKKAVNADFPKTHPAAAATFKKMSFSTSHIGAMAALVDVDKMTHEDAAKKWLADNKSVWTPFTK
From the text: isothermal titration calorimetry on TmoX1062

TmoX1062 [2] = molecular target: T2, TmoX1062 (Candidatus Pelagibacter communis, UniProt Q4FL33, W38A); details: 10 mM Tris-HCl pH 8.0, 100 mM NaCl
T2 construct: gene tmoX

TmoX1062 [3] = molecular target: T3, TmoX1062 (Candidatus Pelagibacter communis, UniProt Q4FL33, F210A); details: 10 mM Tris-HCl pH 8.0, 100 mM NaCl
T3 construct: gene tmoX

TmoX1062 [4] = molecular target: T4, TmoX1062 (Candidatus Pelagibacter communis, UniProt Q4FL33, W85A); details: 10 mM Tris-HCl pH 8.0, 100 mM NaCl
T4 construct: gene tmoX

TmoX1062 [5] = molecular target: T5, TmoX1062 (Candidatus Pelagibacter communis, UniProt Q4FL33, W212A); details: 10 mM Tris-HCl pH 8.0, 100 mM NaCl
T5 construct: gene tmoX

TmoX1062 [6] = molecular target: T6, TmoX1062 (Candidatus Pelagibacter communis, UniProt Q4FL33, E114A); details: 10 mM Tris-HCl pH 8.0, 100 mM NaCl
T6 construct: gene tmoX

TmoX1062 [7] = molecular target: T7, TmoX1062 (Candidatus Pelagibacter communis, UniProt Q4FL33, F89A); details: 10 mM Tris-HCl pH 8.0, 100 mM NaCl
T7 construct: gene tmoX
T7 sequence (Q4FL33 25-314 F89A): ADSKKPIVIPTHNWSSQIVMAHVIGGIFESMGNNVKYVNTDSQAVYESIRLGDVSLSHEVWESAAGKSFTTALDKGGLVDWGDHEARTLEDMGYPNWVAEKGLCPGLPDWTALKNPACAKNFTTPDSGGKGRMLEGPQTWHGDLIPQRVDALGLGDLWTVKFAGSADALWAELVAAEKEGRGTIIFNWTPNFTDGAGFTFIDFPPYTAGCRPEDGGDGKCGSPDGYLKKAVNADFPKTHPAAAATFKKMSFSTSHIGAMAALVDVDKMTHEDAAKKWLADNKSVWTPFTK

T2 sequence (Q4FL33 25-314 W38A): as the sequence (Q4FL33 25-314 F89A) above, with W14A, A65F counted along it
T6 sequence (Q4FL33 25-314 E114A): as the sequence (Q4FL33 25-314 F89A) above, with A65F, E90A counted along it
T4 sequence (Q4FL33 25-314 W85A): as the sequence (Q4FL33 25-314 F89A) above, with W61A, A65F counted along it
T5 sequence (Q4FL33 25-314 W212A): as the sequence (Q4FL33 25-314 F89A) above, with A65F, W188A counted along it
T3 sequence (Q4FL33 25-314 F210A): as the sequence (Q4FL33 25-314 F89A) above, with A65F, F186A counted along it

| Structure (SMILES) | Kd (TmoX1062 [1]) [µM] | binding affinity relative to WT (100%) (TmoX1062 [2]) | binding affinity relative to WT (100%) (TmoX1062 [3]) | binding affinity relative to WT (100%) (TmoX1062 [4]) | binding affinity relative to WT (100%) (TmoX1062 [5]) | binding affinity relative to WT (100%) (TmoX1062 [6]) | binding affinity relative to WT (100%) (TmoX1062 [7]) |
| --- | --- | --- | --- | --- | --- | --- | --- |
| C[N+](C)(C)CCO [Choline] | 2.5 ± 0.33 | – | – | – | – | – | – |
| C[N+](C)(C)[O-] [TMAO] | 0.52 ± 0.12 | mutants W38A and F210A still maintained a relatively high TMAO binding affinity | mutants W38A and F210A still maintained a relatively high TMAO binding affinity | Mutations of Trp85, Phe89 and Trp212 to alanine severely deceased the binding affinity of TmoX1062 | Mutations of Trp85, Phe89 and Trp212 to alanine severely deceased the binding affinity of TmoX1062 | Mutation of Glu114 to alanine abolished the binding affinity of TmoX1062 toward TMAO | Mutations of Trp85, Phe89 and Trp212 to alanine severely deceased the binding affinity of TmoX1062 |
